From ChEMBL document CHEMBL5537151, “Design, synthesis and bioactivity evaluation of novel fusion peptides and their CPT conjugates inducing effective anti-tumor responses on HER2 positive tumors” (Eur J Med Chem, 2024) come the findings set out here.

Series [1] in a line: Toxicity in nude mouse xenografted with human SK-BR-3 cells assessed as change in albumin level at 8 umol/kg, iv administered every 3 days for 14 days. The class given is organism-based. As to conditions: in vivo, 336 h, dose 8 µmol/kg, time 14 day.
Series [2] can be described thus: Toxicity in nude mouse xenografted with human SK-BR-3 cells assessed as change in alkaline phosphatase level at 8 umol/kg, iv administered every 3 days for 14 days. The class given is organism-based. Conditions: in vivo, 336 h, dose 8 µmol/kg, time 14 day. (A xenograft is tissue or cells of one species grown in another, often human tumour cells in immunodeficient mice.)

Series [3] concerns SK-BR-3. As to the kind of experiment: Induction of apoptosis in human SK-BR-3 cells assessed as late apoptotic cells at 1 uM incubated for 24 hrs by Annexin V-FITC/PI staining based flow cytometry analysis (reference value: 1.11%). The class given is functional. For orientation: Flow cytometry measures light scatter and fluorescence of single cells or particles in a stream.
Series [4] is described as follows: Cytotoxicity against HER-negative human MCF-10A cells incubated for 48 hrs by CCK-8 assay. The format is toxicity, cell-based.
The subject of series [5] is SK-BR-3. As to the kind of experiment: cells. As to conditions: Homo sapiens, SK-BR-3, 48 h.
Description: Cytotoxicity against HER-positive human SK-BR-3 cells incubated for 48 hrs by CCK-8 assay
A short description of series [6]: Toxicity in nude mouse xenografted with human SK-BR-3 cells assessed as change in globulin level at 8 umol/kg, iv administered every 3 days for 14 days. The class given is organism-based. As to conditions: in vivo, 336 h, dose 8 µmol/kg, time 14 day.
The test system of series [7] is SK-BR-3. As to the kind of experiment: Induction of apoptosis in human SK-BR-3 cells assessed as live cells at 1 uM incubated for 24 hrs by Annexin V-FITC/PI staining based flow cytometry analysis (reference value: 94.6%). The class given is functional.
In series [8] the test system is SK-OV-3. As to the kind of experiment: cells. Conditions: Homo sapiens, SK-OV-3, 48 h.
Description: Cytotoxicity against HER-positive human SK-OV-3 cells incubated for 48 hrs by CCK-8 assay
Series [9] relates to SK-BR-3. The series can be described thus: Induction of apoptosis in human SK-BR-3 cells assessed as necrotic cells at 1 uM incubated for 24 hrs by Annexin V-FITC/PI staining based flow cytometry analysis (reference value: 1.49%). The class given is functional.
The test system of series [10] is SK-BR-3. As to the kind of experiment: Induction of apoptosis in human SK-BR-3 cells assessed as early apoptotic cells at 1 uM incubated for 24 hrs by Annexin V-FITC/PI staining based flow cytometry analysis (reference value: 2.80%). The format is functional.
Series [11] has as its system NCI-N87. As to the kind of experiment: cells. Conditions: Homo sapiens, NCI-N87, 48 h.
Description: Cytotoxicity against HER-positive human NCI-N87 cells incubated for 48 hrs by CCK-8 assay
A short description of series [12]: Toxicity in nude mouse xenografted with human SK-BR-3 cells assessed as increase in AST level at 8 umol/kg, iv administered every 3 days for 14 days. The class given is organism-based. As to conditions: in vivo, 336 h, dose 8 µmol/kg, time 14 day.
Series [13] can be described thus: Toxicity in nude mouse xenografted with human SK-BR-3 cells assessed as increase in ALT level at 8 umol/kg, iv administered every 3 days for 14 days. The format is organism-based. As to conditions: in vivo, 336 h, dose 8 µmol/kg, time 14 day.
Series [14] has as its system MDA-MB-231. The series can be described thus: cells. As to conditions: Homo sapiens, MDA-MB-231, 48 h.
Description: Cytotoxicity against HER-negative human MDA-MB-231 cells incubated for 48 hrs by CCK-8 assay
The nature of series [15]: Toxicity in nude mouse xenografted with human SK-BR-3 cells assessed as change in total protein level at 8 umol/kg, iv administered every 3 days for 14 days. The class given is organism-based. Conditions: in vivo, 336 h, dose 8 µmol/kg, time 14 day.
Series [16] deals with SK-BR-3. The series can be described thus: Induction of apoptosis in human SK-BR-3 cells assessed as downregulation of XIAP protein expression incubated for 24 hrs by Western blot analysis. The format is functional, cell-based. (In general: A western blot detects proteins with antibodies after separation by electrophoresis.)
Series [17] is described as follows: Toxicity in nude mouse xenografted with human SK-BR-3 cells assessed as increase in AST level at 8 umol/kg, iv administered every 3 days for 14 days in presence of SMAC peptide. The class given is organism-based. As to conditions: in vivo, 336 h, dose 8 µmol/kg, time 14 day.
The nature of series [18]: Toxicity in nude mouse xenografted with human SK-BR-3 cells assessed as change in alkaline phosphatase level at 8 umol/kg, iv administered every 3 days for 14 days in presence of SMAC peptide. The format is organism-based. As to conditions: in vivo, 336 h, dose 8 µmol/kg, time 14 day.
In series [19] the test system is SK-BR-3. As to the kind of experiment: Antitumor activity against human SK-BR-3 cells xenografted in nude mouse assessed as inhibition of tumor growth at 8 umol/kg, iv administered every 3 days for 14 days with SMAC peptide and measured every 2 days by vernier caliper analysis. The format is functional, organism-based. As to conditions: dose 8.0 µmol/kg, time 14.0 day.

A short description of series [20]: Toxicity in nude mouse xenografted with human SK-BR-3 cells assessed as increase in ALT level at 8 umol/kg, iv administered every 3 days for 14 days in presence of SMAC peptide. The class given is organism-based. As to conditions: in vivo, 336 h, dose 8 µmol/kg, time 14 day.
Series [21] concerns SK-BR-3. As to the kind of experiment: Induction of apoptosis in human SK-BR-3 cells assessed as necrotic cells at 1 uM incubated for 24 hrs in presence of SMAC peptide by Annexin V-FITC/PI staining based flow cytometry analysis (reference value: 1.49%). The class given is functional.
Series [22] in a line: Toxicity in nude mouse xenografted with human SK-BR-3 cells assessed as change in globulin level at 8 umol/kg, iv administered every 3 days for 14 days in presence of SMAC peptide. The class given is organism-based. Conditions: in vivo, 336 h, dose 8 µmol/kg, time 14 day.
Series [23] is described as follows: Toxicity in nude mouse xenografted with human SK-BR-3 cells assessed as change in albumin level at 8 umol/kg, iv administered every 3 days for 14 days in presence of SMAC peptide. The class given is organism-based. Conditions: in vivo, 336 h, dose 8 µmol/kg, time 14 day.
The test system of series [24] is SK-BR-3. The series can be described thus: Induction of apoptosis in human SK-BR-3 cells assessed as early apoptotic cells at 1 uM incubated for 24 hrs in presence of SMAC peptide by Annexin V-FITC/PI staining based flow cytometry analysis (reference value: 2.80%). The format is functional.
Series [25] relates to SK-BR-3. The series can be described thus: Antitumor activity against human SK-BR-3 cells xenografted in nude mouse assessed as inhibition of tumor growth at 8 umol/kg, iv administered every 3 days for 14 days and measured every 2 days by vernier caliper analysis. The class given is functional, organism-based. As to conditions: dose 8.0 µmol/kg, time 14.0 day.
Series [26] has as its system SK-BR-3. As to the kind of experiment: Induction of apoptosis in human SK-BR-3 cells assessed as downregulation of cIAP1 protein expression incubated for 24 hrs in presence of SMAC peptide by Western blot analysis. The format is functional, cell-based.
In series [27] the test system is SK-BR-3. The series can be described thus: Induction of apoptosis in human SK-BR-3 cells assessed as late apoptotic cells at 1 uM incubated for 24 hrs in presence of SMAC peptide by Annexin V-FITC/PI staining based flow cytometry analysis (reference value: 1.11%). The class given is functional.
The subject of series [28] is SK-BR-3. The series can be described thus: Induction of apoptosis in human SK-BR-3 cells assessed as live cells at 1 uM incubated for 24 hrs in presence of SMAC peptide by Annexin V-FITC/PI staining based flow cytometry analysis (reference value: 94.6%). The format is functional.
Series [29] can be described thus: Toxicity in nude mouse xenografted with human SK-BR-3 cells assessed as increase in creatinine level at 8 umol/kg, iv administered every 3 days for 14 days in presence of SMAC peptide. The format is organism-based. As to conditions: in vivo, 336 h, dose 8 µmol/kg, time 14 day.
Series [30] concerns SK-BR-3. The series can be described thus: Induction of apoptosis in human SK-BR-3 cells assessed as downregulation of XIAP protein expression incubated for 24 hrs in presence of SMAC peptide by Western blot analysis. The format is functional, cell-based.
For series [31], the system named is SK-BR-3. As to the kind of experiment: Induction of apoptosis in human SK-BR-3 cells assessed as downregulation of cIAP1 protein expression incubated for 24 hrs by Western blot analysis. The class given is functional, cell-based.
The nature of series [32]: Toxicity in nude mouse xenografted with human SK-BR-3 cells assessed as increase in blood urea nitrogen level at 8 umol/kg, iv administered every 3 days for 14 days in presence of SMAC peptide. As to conditions: in vivo, 336 h, dose 8 µmol/kg, time 14 day. The class given is organism-based.
Series [33] in a line: Toxicity in nude mouse xenografted with human SK-BR-3 cells assessed as change in total protein level at 8 umol/kg, iv administered every 3 days for 14 days in presence of SMAC peptide. As to conditions: in vivo, 336 h, dose 8 µmol/kg, time 14 day. The class given is organism-based.

The source made the active and inactive calls. No cut-off for these calls is given here.

As a reminder, the IC50 is the concentration that gives 50% inhibition. Lower therefore signals higher potency. Turning to `CC[C@@]1(O)C(=O)OCc2c1cc1n(c2=O)Cc2cc3ccccc3nc2-1` [CAMPTOTHECIN], the Activity entry in [1] is on record as “Non-Toxic”; in series [2] it was “Non-Toxic”; in series [3] it was 16.9%; in series [6], “Non-Toxic”; in [7], 54.9%; in series [9] it was 0.94%. Also, the Activity in series [10] was 27.3%; in series [12], “Toxic”; in series [13] it was “Toxic”; in series [15], “Non-Toxic”. The compound also came in with a half-inhibitory concentration (IC50) at 48 h in series [4] of 3020 nM. Also, the IC50 in [5] was found to be 380 nM; in series [8], 4070 nM; in series [11], 2070 nM; in series [14] it was 530 nM.

Consider `CCC1(OC(=O)OCCSSC[C@@H](N)C(=O)N[C@@H](CC(N)=O)C(=O)N2CCC[C@H]2C(=O)N[C@@H](CC(N)=O)C(=O)N[C@@H](Cc2c[nH]c3ccccc23)C(=O)NCC(=O)N[C@@H](CCCNC(=N)N)C(=O)N[C@@H](CO)C(=O)N[C@@H](Cc2c[nH]c3ccccc23)C(=O)N[C@@H](Cc2ccc(O)cc2)C(=O)N[C@@H](CC(N)=O)C(=O)N[C@@H](CCC(N)=O)C(=O)N[C@@H](CCCNC(=N)N)C(=O)N[C@@H](Cc2ccccc2)C(=O)N[C@@H](CCCCN)C(=O)N[C@@H](CCCCN)C(N)=O)C(=O)OCc2c1cc1n(c2=O)Cc2cc3ccccc3nc2-1` (stereo partly drawn), for which the outcome in [16], in [19], in series [25] and in [30] was Active. In addition, the Activity result in series [1] is listed as “Non-Toxic”; in series [2], “Non-Toxic”; in series [3], 4.89%; in series [17], “Toxic”; in series [18], “Non-Toxic”; in series [6] it was “Non-Toxic”. Also, the Activity result in series [20] is “Toxic”; in series [21] it was 1.34%; in series [7] it was 78.8%; in series [22], “Non-Toxic”; in [23] it was “Non-Toxic”; in series [24], 16.8%. The Activity in series [9] is reported as 1.23%; in series [10], 15.1%; in series [27] it was 6.9%; in [28], 74.9%; in series [29], “Toxic”; in [12] it was “Toxic”. Moreover, the Activity result in [13] was “Toxic”; in series [32], “Toxic”; in [33] it was “Non-Toxic”; in [15], “Non-Toxic”. In addition, the result in series [26] and in [31] was inactive.
